Data set [1] addresses Prostaglandin G/H synthase 1 (Homo sapiens, UniProt P23219).
Data set [2] addresses T1, Prostaglandin G/H synthase 2 (Homo sapiens, UniProt P35354).
T1 sequence (P35354 whole entry): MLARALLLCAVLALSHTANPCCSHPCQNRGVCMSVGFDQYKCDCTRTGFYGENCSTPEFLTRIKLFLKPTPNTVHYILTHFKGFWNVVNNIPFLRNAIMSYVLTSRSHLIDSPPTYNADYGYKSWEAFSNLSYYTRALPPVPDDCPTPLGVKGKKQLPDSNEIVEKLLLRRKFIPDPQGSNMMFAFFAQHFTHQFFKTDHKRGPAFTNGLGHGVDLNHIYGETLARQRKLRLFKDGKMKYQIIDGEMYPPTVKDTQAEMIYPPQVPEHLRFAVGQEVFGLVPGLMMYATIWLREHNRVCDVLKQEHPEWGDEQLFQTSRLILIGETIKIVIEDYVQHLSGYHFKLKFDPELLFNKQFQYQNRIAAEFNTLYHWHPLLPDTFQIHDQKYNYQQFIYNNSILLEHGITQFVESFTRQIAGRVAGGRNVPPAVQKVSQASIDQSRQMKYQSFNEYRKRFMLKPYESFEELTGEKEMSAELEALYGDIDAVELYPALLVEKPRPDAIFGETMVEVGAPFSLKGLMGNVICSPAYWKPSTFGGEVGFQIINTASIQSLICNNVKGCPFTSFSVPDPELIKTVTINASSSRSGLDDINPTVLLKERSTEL
It counts as cell-based, CHO.

Data set [3] is described as follows: Compound was tested for plasma concentration in rats when administered at 20 mg/kg in 1% methocel at 1 hr. It counts as ADME, organism-based. The following applies: rat, read-out: Cmax. Further details: dose 20 mg/kg.
The subject of data set [4] is Rattus norvegicus. Put plainly: Compound was tested in vivo for efficacy in the rat paw edema assay upon oral administration. It counts as functional.
The species entered for data set [5] is Rattus norvegicus. Put plainly: animal or person. The settings on record: po, read-out: Inhibition.
Data set [6] is described as follows: in vivo. The following applies: rat, plasma, 20 mg/kg.
Description: Compound was tested for plasma concentration in rats when administered at 20 mg/kg in 1% methocel at 2 hr

Sequence of Prostaglandin G/H synthase 1 (P23219 whole entry): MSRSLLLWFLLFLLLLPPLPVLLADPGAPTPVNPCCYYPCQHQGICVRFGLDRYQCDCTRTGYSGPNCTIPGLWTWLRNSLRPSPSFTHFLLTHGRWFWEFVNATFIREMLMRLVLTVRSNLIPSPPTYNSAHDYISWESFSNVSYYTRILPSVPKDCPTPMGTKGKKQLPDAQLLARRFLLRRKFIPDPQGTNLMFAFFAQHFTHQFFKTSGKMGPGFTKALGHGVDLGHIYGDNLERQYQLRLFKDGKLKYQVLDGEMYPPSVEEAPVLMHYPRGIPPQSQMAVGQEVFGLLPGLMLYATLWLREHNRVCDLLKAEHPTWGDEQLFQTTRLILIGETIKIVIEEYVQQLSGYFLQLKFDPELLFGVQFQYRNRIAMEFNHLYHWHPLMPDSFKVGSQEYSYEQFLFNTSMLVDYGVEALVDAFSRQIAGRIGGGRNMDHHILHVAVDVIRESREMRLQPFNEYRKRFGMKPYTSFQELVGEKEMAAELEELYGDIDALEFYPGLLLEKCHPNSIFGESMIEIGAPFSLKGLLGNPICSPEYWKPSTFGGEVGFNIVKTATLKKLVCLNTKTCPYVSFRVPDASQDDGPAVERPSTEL

One may read the IC50 as the concentration that gives 50% inhibition. With `CS(=O)(=O)c1ccc(C2=C(c3ccccc3)C(=O)C2)cc1`, the IC50 in data set [1] came to 4400 nM; in data set [2], 110 nM.

As to `CC1(C)C(c2ccc(S(C)(=O)=O)cc2)=C(c2ccccc2)C1O` (configuration not stated), the half-maximal inhibitory concentration (IC50) in data set [1] was found to be 45000 nM; in data set [2] it was 530 nM.

Usually ED50 stands for the midpoint of the dose-response relation. Turning to `CC1(C)C(c2ccc(S(C)(=O)=O)cc2)=C(c2ccccc2)/C1=N/O`, the concentration at 1 h in data set [3] came to 1800 nM. In addition, the IC50 is 34000 nM in data set [1] and 61 nM in data set [2]. The compound further returned a 50% effective dose (ED50) in data set [4] of 4.2 mg/kg.

Regarding `CC1(C)C(=O)C(c2ccccc2)=C1c1ccc(S(C)(=O)=O)cc1`, the concentration at 1 h in data set [3] is 7500 nM. In data set [4], this compound registered a 50% effective dose (ED50) of 2.4 mg/kg.

For the compound `CS(=O)(=O)c1ccc(C2=C(c3ccccc3)C(=O)C23CCCC3)cc1`, the half-inhibitory concentration (IC50) was found to be 500 nM in data set [1] and 12 nM in data set [2].

With `C=C1CC(c2ccc(S(C)(=O)=O)cc2)=C1c1ccccc1`, in data set [3], the concentration at 1 h came out at 1000 nM. Further, 540 nM corresponded to half-maximal inhibition in data set [1] (IC50). In data set [4], this compound showed a 50% effective dose (ED50) of 5.5 mg/kg.

Turning to `CC1(C)C(=O)C(c2ccc(F)cc2)=C1c1ccc(S(C)(=O)=O)cc1`, the IC50 in data set [1] was found to be 370 nM; in data set [2] it was 5 nM.

With `CS(=O)(=O)c1ccc(C2=C(c3ccc(F)cc3)CC3(CC3)C2)cc1`, the half-inhibitory concentration (IC50) in data set [1] came to 140 nM. The inhibition in vivo at 30 mg/kg in data set [5] worked out at 38%.

`C=C1C(c2ccccc2)=C(c2ccc(S(C)(=O)=O)cc2)C1(C)C`: the IC50 in data set [1] was 120 nM; in data set [2], 2.2 nM.

Take `CC1(C)C(=O)C(c2ccc(S(C)(=O)=O)cc2)=C1c1ccccc1`: the concentration at 1 h in data set [3] came out at 8500 nM. The compound also gave a half-maximal inhibitory concentration (IC50) in data set [1] of 2000 nM. Moreover, in data set [4], the median effective dose (ED50) is 2.7 mg/kg.

In data set [2], `CS(=O)(=O)c1ccc(C2=C(c3ccccc3)CC2)cc1` returned an IC50 greater than 5000 nM.

For `CS(=O)(=O)c1ccc(-c2cc(Br)sc2-c2ccc(F)cc2)cc1` [DUP-697], in data set [6], the concentration at 2 h was determined as 700 nM. The compound also registered a median effective dose (ED50) in data set [4] of 1.3 mg/kg.

(Values after ChEMBL document CHEMBL1129773, “Novel 1,2-diarylcyclobutenes: Selective and orally active cox-2 inhibitors” (Bioorg Med Chem Lett, 1996).)
